Measured values taken from US10525133B2, “Aqueous composition comprising at least one protein and one solubilizing agent, preparation thereof and uses thereof” (ADOCIA, priority 2014, dated 2020).
Blank lines part the entries; values can stand above or below the compound they belong to.

How the values were obtained:
[1] = tested on: Nanogam (human immunoglobulins); experiment: Reduction in aggregation of Nanogam at its isoelectric point (light scattering at 12.8°, Malvern NanoZS); type: physicochemical; conditions: 40 mg/ml human immunoglobulins, pH 8.5 (pI), relative to Nanogam at pH 4.3
Protocol: The Nanogam formulation is a formulation of human immunoglobulins at 50 mg/ml and at pH 4.3 containing various IgG subclasses (IgG1: 54-70%, IgG2: 29-45%, IgG3: 1-4%, IgG4: 0-0.5%, IgA: at most 6 μg/ml). […] A test with various compounds is therefore carried out at the isoelectric point in order to identify the compounds which make it possible to reduce this aggregation phenomenon.
A commercial solution of Nanogam at 50 mg/ml is used. […] Mixing between the solution of Nanogam and one of the solutions of compound is carried out in order to obtain a solution containing 40 mg/ml of human immunoglobulins and the desired concentration of compound. The pH of the various solutions is adjusted to pH 8.5 by adding hydrochloric acid or sodium hydroxide depending on the pH achieved following the mixing between the compound of interest and the solution of human immunoglobulins.
The mixtures are then analyzed by light scattering on a Malvern NanoZS instrument.
The scattered intensities are measured at 12.8°.

human insulin = target: T1, human insulin (Homo sapiens, UniProt P01308); experiment: Solubilization of human insulin at its isoelectric point (visual appearance, soluble fraction by RP-HPLC); type: physicochemical; set-up: key to Visual appearance: Cloudy: If the solution is cloudy, the compound at the concentration tested does not allow total solubilization of human insulin at its isoelectric point; Clear: If the solution is clear, the compound allows total solubilization of human insulin at the concentration tested; conditions: 100 IU/ml human insulin, pH 5.3 (pI)
T1 construct: A solution of human insulin at 500 IU/ml is prepared
Protocol: Human insulin has an isoelectric point (pI) of 5.3. […] A test of solubility at the pI of human insulin with various compounds is carried out. […] Solutions of compounds at various concentrations in water are prepared as described in examples B1 to B4. […] The pH of the various solutions is adjusted to pH 5.3 by adding hydrochloric acid or sodium hydroxide depending on the pH achieved following the mixing between the compound and the solution of human insulin. The appearance of the solution is documented. […] If the solution is clear, the compound allows total solubilization of human insulin at the concentration tested. In addition, the mixtures are centrifuged at 4000 rpm for 10 minutes in a Hereaus Biofuge Pico centrifuge (Rotor #3328) and then filtered through 0.22 μm in order to remove the precipitate. The resulting soluble fractions are then assayed by RP-HPLC (column: Sunfire C18, Waters ref:186003417; mobile phase: sodium phosphate/acetonitrile gradient; detection: UV at 276 nm) with an external insulin range in order to quantify the percentage of soluble insulin at the pI.

[2] = at pH 5.3 (pI); cited from earlier work
[3] = compound 75 mmol/l, molar ratio compound/insulin 125
[4] = compound 750 mmol/l, molar ratio compound/insulin 1250
[5] = compound 120 mmol/l, molar ratio compound/insulin 200
[6] = compound 180 mmol/l, molar ratio compound/Nanogam 675
[7] = compound 150 mmol/l, molar ratio compound/insulin 250
[8] = compound 300 mmol/l, molar ratio compound/insulin 500

T1 sequence (P01308 25-54 limits assumed): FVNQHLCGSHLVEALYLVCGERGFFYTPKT
T1 sequence (P01308 90-110 limits assumed): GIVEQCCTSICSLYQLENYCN

Compound: N[C@@H](Cc1c[nH]cn1)C(=O)O [Histidine, L-histidine, reference compound]
- Iscat 12.8° standardized ([1]; compound 40 mmol/l, molar ratio compound/Nanogam 150): 80.82
- Soluble insulin recovery (%) (human insulin; [3]): 48%
- Visual appearance (human insulin; [3]): Cloudy

Compound: CC(=O)O [Acetic acid, reference compound]
- Iscat 12.8° standardized [1, 6]: 200.18

Compound: Human insulin control: Human insulin at 100 IU/ml, pH 5.3, without solubilizing compound
- Concentration at which human insulin precipitates [2]: greater than or equal to 10 IU/ml
- Soluble insulin recovery (%) (human insulin; control without compound): 11%
- Visual appearance (human insulin; control without compound): Cloudy

Compound: CC(Oc1ccccc1)C(=O)O (stereo not drawn) [2-Phenoxypropionic acid]
- Iscat 12.8° standardized [1, 6]: 6.38

Compound: O=C(O)Cc1ccccc1 [Phenylacetic acid]
- Iscat 12.8° standardized [1, 6]: 20.082

Continued, values first:

- Iscat 12.8° standardized ([1]; compound 27.5 mmol/l, molar ratio compound/Nanogam 675): 22.15
- Soluble insulin recovery (%) (human insulin; [4]): 100%
- Visual appearance (human insulin; [4]): Clear
Compound: O=C(O)C(O)c1ccccc1 (stereo not drawn) [Mandelic acid]

- Soluble insulin recovery (%) (human insulin; [5]): 100%
- Visual appearance (human insulin; [5]): Clear
Compound: O=C(CO)N[C@@H](Cc1c[nH]c2ccccc12)C(=O)O [Molecule A2, N-(2-hydroxyacetyl)-L-tryptophan]

- Soluble insulin recovery (%) (human insulin; [7]): 67%
- Visual appearance (human insulin; [7]): Cloudy
- Soluble insulin recovery (%) (human insulin; [8]): 35%
- Visual appearance (human insulin; [8]): Cloudy
Compound: OC[C@H]1O[C@@](CO)(O[C@H]2O[C@H](CO)[C@@H](O)[C@H](O)[C@H]2O)[C@@H](O)[C@@H]1O [Sucrose, reference compound]

- Iscat 12.8° standardized ([1]; compound 85 mmol/l, molar ratio compound/Nanogam 320): 23.5
- Soluble insulin recovery (%) (human insulin; [8]): 100%
- Visual appearance (human insulin; [8]): Clear
Compound: O=C(CO)N[C@@H](Cc1ccccc1)C(=O)O [Molecule A1, N-(2-hydroxyacetyl)-L-phenylalanine]
